The values below come from patent US8178688B2, “Benzamidine derivatives, process for the preparation thereof and pharmaceutical composition comprising the same” (Dong Wha Pharmaceutical Co., Ltd., priority 2004, dated 2012).

SMILES strings stand for the structures. Read-outs that look alike come from different tables or passages of the source.

The subject of series [1] is osteoclast differentiation. The experiment in a line: Inhibitory effects on osteoclast differentiation (co-culture of bone marrow cells with osteoblast, TRAP staining). The format is cell-based, mice. The following applies: Mus musculus, Osteoclast, 168 h, read-out: % inhibitory activity on osteoclastogenesis. The essentials:
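Percent inhibition versus control is based on microscope counts of TRAP-positive osteoclasts (3 or more nuclei) after 7 days of compound exposure. Cultures paired ddY mouse marrow cells with ICR calvarial osteoblasts, driven by dexamethasone 10^−7M plus vitamin D3 10^−8M, with medium and compound changed every 2–3 days.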

The subject of another series is osteoblast. Nature of the series: Effect on bone formation (osteoblast nodule mineralization, Alizarin red S). The format is cell-based, ICR mice. The following applies: calvarial osteoblast in osteogenic differentiation medium. On the procedure:
The osteoblast, treated in this experiment, was prepared from the osteoblast as prepared in the above.
The osteoblast, isolated from sequential enzymatic treatment of calvariae from neonated ICR mice, was cultured in α-MEM medium containing 10% FBS for 4˜5 days. The osteoblast was also cultured for 24 hr after seeding the cells on a 12 well plate (10^5 cell/well), and medium was exchanged with the osteogenic differentiation medium containing 10 mM β-glycerophosphate and 50 μg/ml ascorbic acid.
The test substances at the concentration of 0.1 uM and 0.1 nM were added to the above medium for evaluating the effect promoting bone formation. The differentiation medium containing the test substances was exchanged every 3 or 4 days for 14 to 21 days until confirming the nodule mineralization.
The cell was rinsed twice with distilled water, and fixed by the 10% formalin solutions for 30 minutes. Alizarin red S and Von-kossa Solution were treated on the plate for measuring deposited calcium and phosphate in cell matrix, and the activity of the test substances on the bone formation was analyzed by determining stained area.
Additionally, for the purpose of estimating quantitative Arizarin red S in cell matrix, stained Arizarin red S was extracted by treating 10 mM sodium phosphate solution (pH 7.0), containing 10% cetylpyridinium chloride, for 15˜30 minutes in the shaking incubator, and then the amount of the deposited calcium was estimated by calculating the absorbance of the extracted Arizarin red S at 564 nm. […]

Another series deals with cells. Nature of the series: Cytotoxicity test (MTT). The following applies: 10^−6M, 72 hrs, compared with the control group. It counts as cell-based. On the procedure: Cytotoxic effect of benzamidine derivatives was evaluated by the experiment described below.
The test substance was diluted in appropriate solvent at 10^−2M concentration. […] Cells to be used in cytotoxitic test were plated on a 96-well microplate in a dose of 1×10^4 cell/100 μL per well and cultured for 72 hrs. 25 μL of MTT [3-(4,5-dimethyl-2-thiazolyl)-2,5-diphenyl-2H-tetrazolium bromide] dissolved in PBS at 2 mg/mL were added before 4 hrs of the end of culture. After reaction, the plates were centrifuged, medium was decanted and 100 μL of DMSO was added to dissolve formazan. Lastly, the absorbance of developed plates was measured at 540 nm.

The subject of another series is ovariectomized ddY mouse. Nature of the series: Therapeutic effect in the ovariectomized osteoporetic mouse model (trabecular bone volume of the femur). It counts as in vivo, ddY mice. The following applies: Mus musculus, 672 h, 50 mg/kg/day oral gavage for 4 weeks from 4 weeks after ovariectomy, salts (methansulfonic acid or HCl), read-out: Changes on TBV (% changes vs vehicle control). On the procedure:
The therapeutic effects of each benzamidine derivates were evaluated on the ovariectomized ddY mouse. Benzamidine derivates were dosed from 4 weeks after operation for 4 weeks and the changes on the trabecular bone volume (TBV) of the femur were observed via histomorphometry.
Female ddY mice (6-wk old upon receipt, SLC, Japan) were used after acclimatization for 7 days. Animals were allocated 5 per polycarbonate cage in a temperature (20-25° C.) and humidity (30-35%) controlled room. Light:dark cycle was 12 hr:12 hr and feed (Samyang, Korea) and water were supplied free to access.
Salts of benzamidine derivates (Methansulfonic acid or HCl) were used for the test substances of this invention. Test substances are dissolved and/or suspended in injectable distilled water and administered at a dosage volume of 10 ml/kg by oral gavage. All test substances are dosed from 4 weeks after operation for 4 weeks at 50 mg/kg/day.
To induce estrogen-deficient osteoporosis, bilateral ovaries are removed and then closed by routine methods. Operation was conduct under Ketamine hydrochloride and xylazine hydrochloride anesthesia.
The left femur of each mouse were separated at sacrifice, and fixed in 10% neutral buffered formalin (NBF), then decalcified in decalcifying solution (24.4% formic acid, and 0.5N sodium hydroxide) for 5 days (mixed decalcifying solution was exchanges once a day for 5 days). After the dexalcification, the femur was embedded in paraffin, sectioned (3˜4 μm) and stained with hematoxylin-eosin stain.
TBV was calculated using automated image analysis (analySIS Image Processing; SIS, Germany) under magnification of ×200 in the uniform area of trochlea epiphyseal regions (growth plate regions were excluded) of prepared histological specimens. TBV was calculated as percentage (%) levels.
The changes of TBV compared to that of vehicle control are calculated as following Equation 1 to help the understanding of the efficacy of test substances. Percentage changes=[((TBV of a−TBV of b)/TBV of b)×100] Equation 1

Where [2] appears, read: 1 μm, co-culture of bone marrow cells and osteoblast, 7 days, TRAP-positive osteoclasts versus controls.
Where [3] appears, read: 1 m, co-culture of bone marrow cells and osteoblast, 7 days, TRAP-positive osteoclasts versus controls.

Molecule `CC(C)c1nc(-c2ccc(OCCCCCOc3ccc(C(=N)NO)cc3)cc2)cs1` [Example 5, N-hydroxy-4-(5-[4-(2-isopropyl-1,3-thiazol-4-yl)phenoxy]pentoxy)-benzamidine] displayed a melting point of 95 to 129 °C. Further, the inhibition at 1 µM in series [1] (setting [2]) was 87.5%.
Turning to `CCCCCc1nc(-c2ccc(OCCCCCOc3ccc(C(=N)NO)cc3)cc2)cs1` [Example 9, N-hydroxy-4-(5-[4-(2-pentyl-1,3-thiazol-4-yl)phenoxy]pentoxy)-benzamidine], the inhibition at 1 µM in series [1] was found to be 100%. For the same molecule, the results for the “bone forming activity (%)” value in the series with osteoblast (0.1 nM) and in the series with osteoblast (0.1 μM) were 6.14% and 13.68%, respectively.
As for `Cc1nc(-c2ccc(OCCCCCOc3ccc(C(=N)NO)cc3)cc2)c(C)s1` [Example 10, N-hydroxy-4-(5-[4-(2,5-dimethyl-1,3-thiazol-4-yl)phenoxy]pentoxy)-benzamidine], the melting point was 128 to 133 °C. Moreover, the inhibition at 1 µM in series [1] (setting [2]) was 1.8%.
`CCc1nc(-c2ccc(OCCCCCOc3ccc(C(=N)NO)cc3)cc2)c(C)s1` [Example 11, N-hydroxy-4-(5-[4-(2-ethyl-5-methyl-1,3-thiazol-4-yl)phenoxy]pentoxy)-benzamidine]: the melting point fell in the range of 127 to 131 °C. In addition, the inhibition at 1 µM in series [1] (setting [2]) is 53.2%. Moreover, the “Survival rates of the cells” value with cells (MC3T3-E1 cells) is 87.2%. Besides, the “Survival rates of the cells” value in the series on cells (ST2 cells) worked out at 33.1%.
For `Cc1sc(C2CCCCC2)nc1-c1ccc(OCCCCCOc2ccc(C(=N)NO)cc2)cc1` [Example 14, N-hydroxy-4-(5-[4-(2-cyclohexyl-5-methyl-1,3-thiazol-4-yl)phenoxy]pentoxy)-benzamidine], in series [1] (setting [2]), the inhibition at 1 µM was 89.2%. In addition, the “bone forming activity (%)” value with osteoblast (0.1 nM) is listed as 10.56%; in the series on osteoblast (0.1 μM) it was 12.06%.
`CCCCCc1nc(-c2ccc(OCCCCCOc3ccc(C(=N)NO)cc3)cc2)c(C)s1` [Example 15, N-hydroxy-4-(5-[4-(5-methyl-2-pentyl-1,3-thiazol-4-yl)phenoxy]pentoxy)-benzamidine] yielded a melting point of 81 to 89 °C. In addition, the inhibition at 1 µM in series [1] stood at 68.3%. The “Survival rates of the cells” value with cells (MC3T3-E1 cells) worked out at 81.8%. The “Survival rates of the cells” value in the series with cells (ST2 cells) is recorded as 42.3%.
`CCc1nc(-c2ccc(OCCCCCOc3ccc(C(=N)NO)cc3)cc2)c(CC)s1` [Example 18, N-hydroxy-4-(5-[4-(2,5-diethyl-1,3-thiazol-4-yl)phenoxy]pentoxy)-benzamidine]: the melting point lay within 121 to 127 °C. Further, the inhibition at 1 µM in series [1] (setting [2]) was 24.8%.
Taken in the same sequence, the figures for `CCc1sc(-c2ccccc2)nc1-c1ccc(OCCCCCOc2ccc(C(=N)NO)cc2)cc1` [Example 20, N-hydroxy-4-(5-[4-(5-ethyl-2-phenyl-1,3-thiazol-4-yl)phenoxy]pentoxy)-benzamidine] were 83 to 86 °C and 35.6%.
The molecule `CCc1sc(-c2cccnc2)nc1-c1ccc(OCCCCCOc2ccc(C(=N)NO)cc2)cc1` [Example 21, N-hydroxy-4-(5-[4-(5-ethyl-2-pyridin-3-yl-1,3-thiazol-4-yl)phenoxy]pentoxy)-benzamidine] had a melting point of 146 to 153 °C. For the same molecule, in the series with ovariectomized ddY mouse, the change in vivo at 50 mg/kg was 75.5%.
For `CCc1sc(C2CCCCC2)nc1-c1ccc(OCCCCCOc2ccc(C(=N)NO)cc2)cc1` [Example 22, N-hydroxy-4-(5-[4-(2-cyclohexyl-5-ethyl-1,3-thiazol-4-yl)phenoxy]pentoxy)-benzamidine], the inhibition at 1 µM in series [1] (setting [2]) came to 92.6%. For the same molecule, the “bone forming activity (%)” value with osteoblast (0.1 nM) turned out to be 10.33%; in the series with osteoblast (0.1 μM), 8.56%.
As to `CCCCCc1nc(-c2ccc(OCCCCCOc3ccc(C(=N)NO)cc3)cc2)c(CC)s1` [Example 23, N-hydroxy-4-(5-[4-(5-ethyl-2-pentyl-1,3-thiazol-4-yl)phenoxy]pentoxy)-benzamidine], the melting point was 79 to 88 °C. For the same molecule, the inhibition at 1 µM in series [1] stood at 47.7%. Further, the change in vivo at 50 mg/kg in the series on ovariectomized ddY mouse came to 28%.
As for `CCCCc1sc(C)nc1-c1ccc(OCCCCCOc2ccc(C(=N)NO)cc2)cc1` [Example 30, N-hydroxy-4-(5-[4-(5-butyl-2-methyl-1,3-thiazol-4-yl)phenoxy]pentoxy)-benzamidine], the melting point lay within 138 to 140 °C. Besides, in series [1] (setting [2]), the inhibition at 1 µM turned out to be 47.7%.
On to `CCCCc1sc(CC)nc1-c1ccc(OCCCCCOc2ccc(C(=N)NO)cc2)cc1` [Example 31, N-hydroxy-4-(5-[4-(5-butyl-2-ethyl-1,3-thiazol-4-yl)phenoxy]pentoxy)-benzamidine], for which the melting point lay in the range of 80 to 84 °C. Also, the inhibition at 1 µM in series [1] (setting [2]) was 35.6%.
Taken in the same sequence, the figures for `CCCCc1sc(-c2cccnc2)nc1-c1ccc(OCCCCCOc2ccc(C(=N)NO)cc2)cc1` [Example 34, N-hydroxy-4-(5-[4-(5-butyl-2-pyridin-3-yl-1,3-thiazol-4-yl)phenoxy]pentoxy)-benzamidine] were 107 to 118 °C and 28.7%.
Taken in the same sequence, the figures for `CC(C)c1nc(-c2ccc(OCCCCCOc3ccc(C(=N)NO)cc3)cc2)c(Cc2ccccc2)s1` [Example 39, N-hydroxy-4-(5-[4-(5-benzyl-2-isopropyl-1,3-thiazol-4-yl)phenoxy]pentoxy)-benzamidine] were 108 to 120 °C and 37.5%.
`N=C(NO)c1ccc(OCCCCCOc2ccc(-c3nc(-c4cccnc4)sc3Cc3ccccc3)cc2)cc1` [Example 41, N-hydroxy-4-(5-[4-(5-benzyl-2-pyridin-3-yl-1,3-thiazol-4-yl)phenoxy]pentoxy)-benzamidine] came in with a melting point of 134 to 143 °C. For the same molecule, the inhibition at 1 µM in series [1] (setting [2]) was determined as 64%. Moreover, the “Survival rates of the cells” value in the series with cells (MC3T3-E1 cells) amounted to 84.6%. Further, in the series on cells (ST2 cells), the “Survival rates of the cells” value is on record as 48.7%.
For `CCNc1nc(-c2ccc(OCCCCCOc3ccc(C(=N)NO)cc3)cc2)c(CC2CCCC2)s1` [Example 110, N-hydroxy-4-(5-[4-(5-cyclopentylmethyl-2-ethylamino-1,3-thiazol-4-yl)phenoxy]pentoxy)-benzamidine], in series [1] (setting [3]), the inhibition at 1 µM amounted to 100%. In addition, the “bone forming activity (%)” value in the series on osteoblast (0.1 nM) is 9.76%; with osteoblast (0.1 μM) it was 9.37%.
For the molecule `CCc1sc(N(C)CCO)nc1-c1ccc(OCCCCCOc2ccc(C(=N)NO)cc2)cc1` [Example 129, N-hydroxy-4-(5-[4-(5-ethyl-2-((2-hydroxyethyl)-methyl-amino)-1,3-thiazol-4-yl)phenoxy]pentoxy)-benzamidine], the inhibition at 1 µM in series [1] (setting [3]) turned out to be 64.7%. Besides, the “bone forming activity (%)” value with osteoblast (0.1 nM) is listed as 11.18%; with osteoblast (0.1 μM), 11.54%.

For orientation: melting point means the temperature of the solid-liquid transition.
